Measurements as given in PMC8546421, “Molecular modelling of the FOXO4-TP53 interaction to design senolytic peptides for the elimination of senescent cancer cells” (EBioMedicine, 2021).
Where no end group is shown, it is not given here.

Legend:
[1] = test system: senescent cells in the liver; experiment: Systemic delivery to aged mice, liver SA-β-gal; format: in vivo, mouse; settings: aged mice (82 weeks), 3 mg ES2 via tail vein weekly for three weeks, n=5, p=0.03
Description: Senescent and dividing cells or tissue sections were fixed with 4% formaldehyde. The cells were washed with PBS twice before staining with X-gal solution [1 mg/mL 5-bromo-4-chloro-3inolyl-β-D-galactoside (Boehringer Manneheim #745-740) in N,N-dimethylformamide, 5 mM potassium ferricyanide crystalline (#P-8131), 5 mM potassium […] (#P-3289), 2 mM magnesium chloride, and 1x PBS, pH 6.0. Cells or tissue sections were incubated at 37°C for 24 hours. After staining, cells were washed with PBS before being counted and imaged on the Leica Dmi8 microscope.
Mice were aged between 3-8 months and 20-30 g in weight and were housed in specific pathogen free cages. Animals were randomly distributed among treatment groups by assigning mice within the same cage to different treatment regimens. To minimise confounders, mouse treatment order was randomised within each cage. Male and female mice were distributed between all treatment groups since the chemicals used were directly injected and are not metabolized. Researchers were not blinded to the group allocation, but all attempts were made to analyse the data without knowing treatment conditions. […] Mice were then monitored daily and allowed to age until a humane endpoint was reached according to our IACUC protocol, which in this case was tumours of 2 cm in size. […]

[2] = test system: PMAIP1 (NOXA) and BBC3 (PUMA); experiment: ddPCR of TP53 target genes; format: cell-based, human
Description: Primers and probes were designed specifically for ddPCR for human BBC3 (Bio-Rad Cat# 10031255, Assay ID dHsaCPE5034069) and PMAIP1(Bio-Rad Cat# 10031252, Assay ID dHsa5037552) genes. RNA was extracted using the Qiagen RNeasy Kit (Cat# 74004). 5 ng of RNA was used for 22 µl PCR reaction mixtures using the One-Step RT-ddPCR Advanced Kit for Probes (Bio-Rad Cat# 1864022) following the manufacturer's protocol. ddPCR droplets were generated using the Bio-Rad Automated Droplet Generator. Plate containing ddPCR droplets was sealed and RT-PCR was performed using the C-1000 Thermal Cycler (Bio-Rad). ddPCR was performed in the QX200 Droplet Digital PCR System (Bio-Rad). Analysis of the ddPCR data was performed using QX200 analysis software.

A375 cells = experiment: Annexin V live cell stain, kinetics of apoptosis; format: cell-based, human; settings: 8 µM ES2, A375 cells, linear regression comparison p<0.001
[3] = test system: Braf/Pten sporadic melanomas; experiment: TUNEL staining of melanomas in transgenic mice; format: in vivo, mouse; settings: intratumoural injection daily over two days; single agents vs saline
Description: These mice were maintained on a C57Bl6 background and all experimental mice contained Tyr::CreER with either Braf^CA/+, Pten^fx/+; Braf^CA/CA, Pten^fx/+, or Braf^CA/+, Pten^fx/fx. […] Hypopigmented melanomas sporadically formed over the next 3-5 months, typically on the back of the mouse. These melanomas were then directly injected with 100 µL of either 20 mg/mL ES2+10%DMSO, saline+10%DMSO, saline+10%Dabrafenib, or 20 mg/mL ES2+10%Dabrafenib. The researchers were not blinded to the experiment, but each mouse contained an internal control and all imaging was done with the same exposure times based upon control tissue.
Fixed frozen sections of melanomas were stained with the Click-IT Plus TUNEL assay (ThermoFisher C10618) according to the manufacturer's protocol. Stained sections were imaged with a Zeiss A2 upright microscope at either 20x or 10x. At least one of each treatment group were stained and imaged at the same time. All sections from each staining group were set to the same exposure time for TUNEL and DAPI. Any normalization of background levels was performed in Adobe Photoshop and set to the same scale for the entire image and for all other images.

PRKGGRRRRAWGRRRRRRRRRRRRRRAPRKRLTLA [ES2]
number of senescent cells in the liver (SA-β-gal activity) [1]: reduced the number of senescent cells in the liver by half | NOXA and PUMA levels in senescent cells ([2]; 30 minutes after ES2 treatment, n=6, p<0.001): significant increase in levels | NOXA and PUMA levels in dividing cells ([2]; dividing cells): no response | rate of apoptosis, senescent compared to dividing cells (A375 cells): four-fold | effect on apoptosis (TUNEL), in words [3]: no difference
